Test results reported in PMC11289669, “BAR502/fibrate conjugates: synthesis, biological evaluation and metabolic profile” (Frontiers in Chemistry, 2024).
“Also recorded” adds a separate entry of the source.

Experiments:
FXR = target: T1, FXR (Homo sapiens, UniProt Q96RI1); experiment: FXR transactivation (luciferase reporter) assay in HepG2 cells; format: cell-based; details: HepG2 cells
T1 construct: expressed in transfected cells; host or cells: HepG2 (the text says EC50 dose-response curves were run in HEK-293T)
T1 sequence (Q96RI1 1-486): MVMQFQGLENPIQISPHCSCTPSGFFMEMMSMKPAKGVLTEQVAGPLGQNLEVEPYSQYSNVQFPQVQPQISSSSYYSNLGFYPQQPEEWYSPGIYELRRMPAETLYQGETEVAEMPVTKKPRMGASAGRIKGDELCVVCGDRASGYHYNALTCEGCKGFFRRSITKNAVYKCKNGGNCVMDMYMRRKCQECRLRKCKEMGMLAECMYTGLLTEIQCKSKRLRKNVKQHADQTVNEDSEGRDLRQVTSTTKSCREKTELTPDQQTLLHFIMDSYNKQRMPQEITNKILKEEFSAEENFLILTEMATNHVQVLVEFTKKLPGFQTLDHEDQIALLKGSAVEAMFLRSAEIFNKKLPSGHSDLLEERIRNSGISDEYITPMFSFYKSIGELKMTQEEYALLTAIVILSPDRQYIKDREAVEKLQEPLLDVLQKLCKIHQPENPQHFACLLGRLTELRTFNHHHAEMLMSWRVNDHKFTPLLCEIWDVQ
T1 sequence (P19793 1-462 partner): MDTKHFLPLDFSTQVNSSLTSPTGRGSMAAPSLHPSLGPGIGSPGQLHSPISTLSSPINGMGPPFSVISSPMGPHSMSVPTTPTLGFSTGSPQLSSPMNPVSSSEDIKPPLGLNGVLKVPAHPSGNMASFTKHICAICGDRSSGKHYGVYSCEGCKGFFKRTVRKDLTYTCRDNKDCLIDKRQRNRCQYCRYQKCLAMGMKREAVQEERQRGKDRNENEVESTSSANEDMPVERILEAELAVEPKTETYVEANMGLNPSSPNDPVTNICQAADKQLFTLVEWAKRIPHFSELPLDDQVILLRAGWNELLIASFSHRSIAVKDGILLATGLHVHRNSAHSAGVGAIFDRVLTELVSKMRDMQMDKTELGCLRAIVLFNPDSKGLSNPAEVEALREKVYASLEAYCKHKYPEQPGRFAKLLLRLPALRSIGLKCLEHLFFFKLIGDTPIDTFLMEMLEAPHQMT
Experimental: HepG2 and HEK-293T cells were cultured at 37 °C in minimal essential medium (MEM) and Dulbecco’s Modified Eagle Medium (DMEM) respectively, supplemented with 10% fetal bovine serum, 1% L-glutamine, 100 U/mL penicillin, and 100 μg/mL streptomycin. To investigate FXR-mediated transactivation, the HepG2 cells were transfected with 200 ng of the reporter vector p (hsp27)TK-Luc containing the FXR response element IR1 cloned from the promoter of heat shock protein 27 (hsp27), plus 100 ng pSG5-FXR, 100 ng pSG5-RXR, and 100 ng pGL4.70 Renilla. To evaluate GPBAR1 mediated transactivation, HEK-293T cells were transfected with 200 ng of human pGL4.29 (Promega), a reporter vector containing a cAMP response element (CRE) that drives the transcription of the luciferase reporter gene luc2P, with 100 ng of pCMVSPORT6-human GPBAR1, and with 100 ng of pGL4.70. At 24 h post-transfection, cells were stimulated 18 h with 10 μM TLCA (taurolithocholic acid a GPBAR1 agonist) or CDCA (FXR agonist) and compounds. To calculate the EC50 on FXR and GPBAR1, dose-response curves were performed in HEK-293T cells transfected as described above and then treated with increasing concentrations of compounds (from 0.1 to 50 µM). After treatments, cells were lysed in 100 μL of lysis buffer (25 mM Tris-phosphate, pH 7.8; 2 mM DTT; 10% glycerol; 1% Triton X-100), and 10 μL of cellular lysate was assayed for luciferase activity using the Firfly &Renilla Luciferase assay kit (Biotium). Luminescence was measured using Glomax 20/20 luminometer (Promega). Luciferase activities were assayed and normalized with Renilla activities.

[1] = Microsomal stability in human liver microsomes; format: in vitro ADME; details: pH 7.4, 1 µM
Experimental: Chemical stability in HCl Buffer, PBS buffer and culture medium (EMEM) was evaluated by LC-MS dissolving compound 1 at 10 μM (final concertation) in cited buffers and injecting aliquots removed from incubations at different time points. Microsomal stability was evaluated employing 50 mM potassium phosphate buffer (pH 7.4) containing 0.15 mg of Human liver microsomes (Sigma-Aldrich, St. Louis, MO, United States) 5 mM MgCl2, 1 mM NADPH, 5 mM glucose 6-phosphate, 0.4 U·mL^−1 glucose 6-phosphate dehydrogenase. Compounds were tested at 1 µM final concentration. Aliquots, removed at different time points, were diluted with ice-cold acetonitrile and analyzed by LC-MS.

[2] = Stability in cryopreserved pooled human hepatocytes; format: in vitro ADME; details: cryopreserved pooled human hepatocytes (HEP10), read-out: t1/2 in cryopreserved hepatocytes
Experimental: Cryopreserved HEP10 Pooled Human Hepatocytes were thawed in 37°C water bath for 2 min and then transferred into CHRM® Medium. After centrifugation at room temperature cells were resuspended in pre-warmed Incubation Medium and diluted to correct seeding density (5 × 10^5 cells/mL).

[3] = In cell permeation and metabolism in HepG2 cells (LC-MSMS); format: in vitro ADME, human; details: 0–480 min
Experimental: HepG2 cells were treated with compound 1, BAR502 or clofibrate. At different time points (0–480 min) culture mediums and cells pellets were collected, extracted by adding ice-cold acetonitrile and analyzed by LC-MSMS.

[4] = Plasma profile / metabolite quantization in mice (LC-MS MRM); format: in vivo

Q: What does the source list for `CC[C@@H]1C2C[C@H](O)CC[C@]2(C)C2CC[C@@]3(C)C(CC[C@@H]3[C@H](C)CCOC(=O)C(C)(C)Oc3ccc(Cl)cc3)C2[C@@H]1O` (stereo partly shown) [Compound 1]?
A: EC50 (FXR): 2800 ± 10 nM; microsomal CLint at 1 µM [1]: 87 µL/min/mg; half-life at 1 µM ([1]; read-out: t1/2 in human microsomes): 0.45 h; half-life [2]: 2.02 h; Cell permeation (amount in cell pellets) compared to BAR502 [3]: higher cell permeation; Hydrolysis to clofibric acid in cells compared with clofibrate [3]: hydrolyzed more slowly; Plasma level of oxidized metabolite BAR505 ([4]; mice treated with compound 1, 30 mg/kg): highly abundant species; Plasma clofibric acid released, compared with that from clofibrate ([4]; mice, 30 mg/kg): superimposable; Unmodified compound in plasma ([4]; mice, 30 mg/kg, 0-8 h): not detected; also recorded: not found

Q: Which EC50 (FXR) does the source give for `CC[C@H]1[C@@H](O)[C@@H]2[C@H](CC[C@]3(C)[C@@H]([C@H](C)CCO)CC[C@@H]23)[C@@]2(C)CC[C@@H](O)C[C@@H]12` [BAR502, 6α-ethyl-3α,7α-dihydroxy-24-nor-5β-cholan-23-ol] here?
A: 2000 ± 200 nM
